Results published in US9249114B2, “Thiazole derivatives” (Merck Patent GmbH, priority 2011, dated 2016).

Legend:
phospho-IRF3 Ser 386 = test: Cell test: dose response inhibition of phospho-IRF3 Ser 386 in MDA-MB-468 cells; format: cell-based; conditions: Homo sapiens, Poly(I:C) stimulation, read-out: IC50 of reference inhibitor in phospho-IRF3 cell assay
From the text: Cell Test Dose Response Inhibition of Phospho-IRF3 […] cell/MDAMB468/INH/PHOS/IMAG/pIRF3 1. Scope Although TBK1 and IKKε are best known as key players in the innate immune response, recent findings have pointed towards a role for TBK1 and IKKi in Ras-induced oncogenic transformation. TBK1 was identified as a RalB effector in the Ras-like (Ral)-guanine nucleotide exchange factor (GEF) pathway that is required for Ras-induced transformation. TBK1 directly activates IRF3 which, upon phosphorylation, homodimerizes and translocates to the nucleus where it activates processes involved with inflammation, immune regulation, cell survival and proliferation. This assay has been devised in order to assess the efficacy/potency of TBK1/IKKε inhibitor compounds based on the immunocytochemical detection of nuclear localised phospho-IRF3, a target directly downstream of TBK1. […] 2. Assay Overview Day 1: MDA-MB-468 cells are detached with HyQ-Tase, counted, and seeded into a 384-well clear bottom TC-surface plate at density of 10,000 cells per well in a total volume of 35 ul complete medium. Alternatively cells are directly seeded from frozen vials. […] Day 3: The primary antibody is washed off, an AlexaFluor488-conjugated secondary is added, cells are counterstained with propidium iodide followed by image acquisition on IMX Ultra high content reader. […]

[1] = biological target: TANK binding kinase (TBK1) (Homo sapiens (Human), UniProt Q9UHD2); test: TBK1 enzyme assay (384-well Flashplate kinase assay); format: biochemical; conditions: 10 μM ATP, 120 Min at 30° C.
Chain of TANK binding kinase (TBK1) (Q9UHD2 whole entry): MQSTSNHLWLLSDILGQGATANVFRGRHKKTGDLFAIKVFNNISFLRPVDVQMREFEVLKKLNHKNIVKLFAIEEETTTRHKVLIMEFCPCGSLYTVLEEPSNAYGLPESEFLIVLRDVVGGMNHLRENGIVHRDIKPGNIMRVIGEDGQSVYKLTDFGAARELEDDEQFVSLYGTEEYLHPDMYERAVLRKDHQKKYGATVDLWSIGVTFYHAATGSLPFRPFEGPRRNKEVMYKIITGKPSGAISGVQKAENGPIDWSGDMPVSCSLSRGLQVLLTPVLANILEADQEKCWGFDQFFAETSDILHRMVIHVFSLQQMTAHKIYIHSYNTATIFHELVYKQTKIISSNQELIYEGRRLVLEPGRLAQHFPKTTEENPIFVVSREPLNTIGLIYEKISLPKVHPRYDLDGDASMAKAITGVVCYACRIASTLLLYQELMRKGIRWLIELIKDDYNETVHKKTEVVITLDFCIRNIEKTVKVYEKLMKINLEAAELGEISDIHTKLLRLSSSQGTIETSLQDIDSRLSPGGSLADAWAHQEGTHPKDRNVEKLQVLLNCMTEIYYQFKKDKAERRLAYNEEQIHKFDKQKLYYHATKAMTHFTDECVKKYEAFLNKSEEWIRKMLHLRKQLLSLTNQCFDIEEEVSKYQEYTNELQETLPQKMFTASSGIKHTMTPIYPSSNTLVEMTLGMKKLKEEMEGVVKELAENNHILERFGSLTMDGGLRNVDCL
Procedure: Test for the Inhibition of TBK1
The kinase assay is performed as 384-well Flashplate assay (for e.g. Topcount measurement. 0.6 nM TANK binding kinase (TBK1), 800 nM biotinylated MELK-derived peptide (Biotin-Ah-Ah-[…]) SEQ ID NO: 2 and 10 μM ATP (spiked with 0.25 μCi ^33P-ATP/well) are incubated in a total volume of 50 μl (10 mM MOPS, 10 mM Mg-acetat, 0.1 mM EGTA, 1 mM DTT, 0.02% Brij35, 0.1% BSA, pH 7.5) with or without test compound for 120 Min at 30° C. The reaction is stopped with 25 μl 200 mM EDTA. After 30 Min at room temperature the liquid is removed and each well washed thrice with 100 μl 0.9% sodium chloride solution. Nonspecific reaction is determined in presence of 100 nM Staurosporine. Radioactivity is measured in a Topcount (PerkinElmer). Results (e.g. IC50-values) are calculated with program tools provided by the IT-department (e.g. AssayExplorer, Symyx).

IKKε = IKKε (Homo sapiens (Human), UniProt Q14164); test: IKKε kinase assay (384-well Flashplate); format: biochemical; conditions: 10 μM ATP, 2 hours at 30° C.; read-out: IKKε enzyme assay IC50
Chain of IKKε (Q14164 whole entry): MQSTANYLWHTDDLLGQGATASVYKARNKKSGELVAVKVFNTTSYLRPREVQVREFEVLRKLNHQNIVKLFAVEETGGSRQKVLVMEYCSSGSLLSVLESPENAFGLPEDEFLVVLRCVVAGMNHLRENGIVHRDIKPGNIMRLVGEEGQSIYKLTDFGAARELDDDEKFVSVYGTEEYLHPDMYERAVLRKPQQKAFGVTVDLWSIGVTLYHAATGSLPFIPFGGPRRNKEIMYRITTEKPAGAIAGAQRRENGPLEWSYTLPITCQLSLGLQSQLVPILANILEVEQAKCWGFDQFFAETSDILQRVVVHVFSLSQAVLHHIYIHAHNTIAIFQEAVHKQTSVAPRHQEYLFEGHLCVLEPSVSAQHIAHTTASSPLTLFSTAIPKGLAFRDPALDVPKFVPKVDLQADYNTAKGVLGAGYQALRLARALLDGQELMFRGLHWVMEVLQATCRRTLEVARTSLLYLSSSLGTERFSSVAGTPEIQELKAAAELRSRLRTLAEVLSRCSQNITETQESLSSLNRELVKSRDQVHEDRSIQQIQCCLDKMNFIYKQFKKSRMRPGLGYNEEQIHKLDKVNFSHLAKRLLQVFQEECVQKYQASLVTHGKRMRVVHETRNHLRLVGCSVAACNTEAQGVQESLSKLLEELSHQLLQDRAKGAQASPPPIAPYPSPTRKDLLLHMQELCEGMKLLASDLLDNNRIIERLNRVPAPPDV
Procedure: Test for the Inhibition of IKKε
IKKε—Kinase Assay (IKKepsilon)
The kinase assay is performed either as 384-well Flashplate assay (for e.g. Topcount measurement). […] The reaction is stopped with 25 μl 200 mM EDTA. After 30 Min at room temperature the liquid is removed and each well washed thrice with 100 μl 0.9% sodium chloride solution. […] Radioactivity is measured with Topcount (PerkinElmer). Results (e.g. IC50-values) are calculated with program tools provided by the IT-department (e.g. AssayExplorer, Symyx).

| Structure (SMILES) | IC50 (phospho-IRF3 Ser 386) | IC50 [1] | IC50 (IKKε) |
| --- | --- | --- | --- |
| O=C(NCCCNc1nc(Nc2cccc(NC(=O)N3CCCC3)c2)ncc1I)c1cccs1 [BX-795] | 0.2 to 0.8 µM |  |  |
| CC(=O)N1CCN(Cc2ccc(C(=O)Nc3sc(-c4ccncc4)nc3C(N)=O)cc2)CC1 [Compound A27, 5-[4-(4-acetyl-piperazin-1-ylmethyl)-benzoylamino]-2-pyridin-4-yl-thiazole-4-carboxylic acid amide] |  | 0.14 µM | 0.1 µM |
| NC(=O)c1nc(-c2ccncc2)sc1NC(=O)c1ccc(N)cc1 [Compound A58, 5-[(4-aminobenzoyl)amino]-2-pyridin-4-yl-1,3-thiazole-4-carboxamide] |  | 0.11 µM | 0.18 µM |
| NC(=O)c1nc(-c2ccncc2)sc1NC(=O)c1ccco1 [Compound A60, 5-(2-furoylamino)-2-pyridin-4-yl-1,3-thiazole-4-carboxamide] |  | 3.7 µM | 6.3 µM |
| Cn1cccc1C(=O)Nc1sc(-c2ccncc2)nc1C(N)=O [Compound A59, 5-{[(1-methyl-1H-pyrrol-2-yl)carbonyl]amino}-2-pyridin-4-yl-1,3-thiazole-4-carboxamide] |  | 0.4 µM | 1.2 µM |
| NC(=O)c1nc(-c2ccncc2)sc1NC(=O)c1cn[nH]c1 [Compound A42, 5-[(1H-pyrazole-4-carbonyl)-amino]-2-pyridin-4-yl-thiazole-4-carboxylic acid amide] |  | 2.7 µM | 0.73 µM |
| NC(=O)c1nc(-c2ccncc2)sc1NC(=O)c1ccc[nH]1 [Compound A61, 2-pyridin-4-yl-5-[(1H-pyrrol-2-ylcarbonyl)amino]-1,3-thiazole-4-carboxamide] |  | 0.12 µM | 0.14 µM |
| CN1CCN(Cc2ccc(C(=O)Nc3sc(-c4ccncc4)nc3C(N)=O)cc2)CC1 [Compound A37, 5-[4-(4-methyl-piperazin-1-ylmethyl)-benzoylamino]-2-pyridin-4-yl-thiazole-4-carboxylic acid amide] |  | 0.71 µM | 0.2 µM |
| CN1CCN(Cc2ccc(C(=O)Nc3sc(-c4ccncc4Br)nc3C(N)=O)cc2)CC1 [Compound A18, 2-(3-bromo-pyridin-4-yl)-5-[4-(4-methyl-piperazin-1-ylmethyl)-benzoylamino]-thiazole-4-carboxylic acid amide] |  | 0.31 µM | 0.19 µM |
